Consider 26 compounds from the PolyMetriX glass transition set.

The structures appear in SMILES notation.

Regarding `*/C(C)=C(/*)CCCCCCC` (repeat unit), the glass transition temperature was 160.00 °C.
The compound `*=Nc1ccc(/N=C(\c2ccccc2)c2ccc(C(=*)c3ccccc3)cc2)cc1` (repeat unit) showed a glass transition temperature of 179.00 °C.
Turning to `*CC(*)(C)C(=O)OCCCN(C)c1ccc(N(C)C)cc1` (repeat unit), the glass transition temperature came out at 12.50 °C.
Then `*CC(*)(C)C(=O)OCCCN(CCO)c1ccc(/N=N/c2ccc([N+](=O)[O-])cc2)cc1` (repeat unit), with 131.00 °C; and `*CC(*)(C)C(=O)OCCCOc1ccc(-c2ccc(C#N)cc2)cc1` (repeat unit), with 97.00 °C; and `*CC(*)(C)C(=O)OCCC[Si](OC)(OC)OC` (repeat unit), with 9.00 °C.
The compound `*CC(*)(C)C(=O)OCCN(C)c1ccc(/N=N/c2ccc(S(=O)(=O)Nc3cc(C)on3)cc2)cc1` (repeat unit) came in with a glass transition temperature of 123.00 °C.
Then `*CC(*)(C)C(=O)OCCN(C)c1ccc(N(C)C)cc1` (repeat unit), with 43.00 °C; and `*CC(*)(C)C(=O)OCCN(CC)CC` (repeat unit), with 26.00 °C; and `*CC(*)(C)C(=O)OCCN(CC)c1ccc(/N=N/c2ccc(C#N)cc2)cc1` (repeat unit), with 119.00 °C.
For the compound `*CC(*)(C)C(=O)OCCN(CC)c1ccc(/N=N/c2ccc([N+](=O)[O-])c3ccccc23)cc1` (repeat unit), the glass transition temperature is 116.00 °C.
For `*CC(*)(C)C(=O)OCCN(CCCC)c1ccc(/N=N/c2ccc(S(=O)(=O)Nc3cc(C)on3)cc2)cc1` (repeat unit) the value was 105.00 °C; for `*CC(*)(C)C(=O)OCCOCC` (repeat unit), -16.00 °C; for `*CC(*)(C)C(=O)OCCOCCOCCOCCOCCOCCOCCOCCOC` (repeat unit), -58.00 °C.
Then `*CC(*)(C)C(=O)OCCOCC[N+](CC)(CC)CCCCS(=O)(=O)O` (repeat unit), with 95.00 °C; and `*CC(*)(C)C(=O)OCCOc1ccc(/N=N/c2ccc(C#N)cc2)cc1` (repeat unit), with 109.00 °C.
Then `*CC(*)(C)C(=O)OCC[N+](C)(C)CCCCS(=O)(=O)O` (repeat unit), with 261.00 °C; and `*CC(*)(C)C(=O)OCCc1ccc(/N=N/c2ccc(OC(F)(F)F)cc2)cc1` (repeat unit), with 209.50 °C; and `*CC(*)(C)C(=O)OCc1ccc(/C=C/C(=O)C2c3ccccc3C(=O)c3ccccc32)cc1` (repeat unit), with 163.00 °C.
Consider `*CC(*)(C)C(=O)OCc1ccc(Cl)c(Cl)c1` (repeat unit), for which the glass transition temperature was found to be 34.5 °C.
Then `*CC(*)(C)C(=O)OCc1ccc(OCCOCCOCC)c(OCCOCCOCC)c1` (repeat unit), with -33.00 °C; and `*CC(*)(C)C(=O)OCc1ccc(OCCOCCOCCOCC)c(OCCOCCOCCOCC)c1` (repeat unit), with -92.00 °C.
Then `*N=P(Cl)(N=P(/N=S(/*)Oc1cccc(-c2ccccc2)c1)(Oc1cccc(-c2ccccc2)c1)Oc1cccc(-c2ccccc2)c1)Oc1cccc(-c2ccccc2)c1` (repeat unit), with 32.00 °C.
Then `*Oc1ccc(-c2ccc(Oc3ccc(/C(=N/c4ccc(/N=C(\c5ccccc5)c5ccc(*)cc5)cc4)c4ccccc4)cc3)cc2)cc1` (repeat unit), with 195.00 °C; and `*Oc1ccc(/C(=N/c2ccc(/N=C(\c3ccccc3)c3ccc(Oc4ccc(C(c5ccccc5)(c5ccccc5)c5ccc(*)cc5)cc4)cc3)cc2)c2ccccc2)cc1` (repeat unit), with 198.00 °C; and `*Oc1ccc(/C(C)=N/c2ccc(/N=C(\C)c3ccc(Oc4ccc(C(c5ccccc5)(c5ccccc5)c5ccc(*)cc5)cc4)cc3)cc2)cc1` (repeat unit), with 178.00 °C.
